Measurements taken from US4831155A (priority 1984, dated 1989).
Where two headings read alike, the source gives them in different places.

Legend:
[1] = acute toxicity (lethal dose) in mice; type: in vivo; settings: mouse, in vivo, injection, determined within two hours, read-out: lethal dose 50 (LD50)
Procedure: (§1) The activity of the this product was evaluated in terms of its toxicity (lethal dose: LD) and its behavioural effects.
(§2) The experiments were conducted using male Swiss mice with a weight of about 30 g.
(§3) The acute toxic effects of the heptyl derivative were also evaluated as a comparison with the effects of physostigmine. […] Compared with physostigmine, the lethal dose 50 of the heptyl derivative is about 60 times greater, the LD50 for physostigmine being 0.6 mg/kg. The LD50 values were determined within two hours from the injection. Beyond this time, no obvious effects were observable. The LD50 values of other derivatives according to the present invention, evaluated with the same method resulted as follows: […]

[2] = test system: male Swiss mice; assay: spontaneous locomotor activity in mice (two-part cage); type: in vivo
Procedure: (§4) In particular, with regard to this latter aspect, an evaluation was made of the effects of the substance on spontaneous locomotor activity, and of the antagonisms of the heptyl derivative towards the central stimulating effects of anticholinergic drugs (scopolamine). An evaluation was also made of the effects of the substance on the electrocorticographic activity and on the inhibition of cerebral acetylcholinesterase (AchE) "in vivo".
as §2
The test used for measuring the spontaneous locomotor activity was that employing a cage divided into two parts.

[3] = test system: cerebral acetylcholinesterase (AchE); type: in vivo, mice
[4] = test system: acetylcholinesterase (AchE); assay: acetylcholinesterase (AChE) inhibition in the brain and serum after i.p. administration; type: in vivo, rats; settings: n=4; for AChE inhibition, brain (M ± SE) / AChE inhibition, serum (M ± SE): Table I, 10 min, salicylate
Procedure: The acetylcholinesterase (AchE) inhibition in the brain and serum was tested for the heptyl derivative in comparison with physostigmine. Both physostigmine and heptyl derivative were used in form of salycilate and dissolved in distilled water with carbossimethyl cellulose sodium salt at 2%.

[5] = biological target: T1, acetylcholinesterase originating from "Electrophorus electricus" (Electrophorus electricus, UniProt O42275)
[6] = biological target: T1, acetylcholinesterase originating from "Electrophorus electricus"; assay: biochemical
[7] = test system: male Swiss mice; assay: acute toxicity (lethal dose) in mice; type: in vivo
Procedure: as §1, §2, §3

[8] = test system: male Swiss mice; assay: antagonism towards the central stimulating effects of scopolamine; type: in vivo
Procedure: as §4, §2
At the central cholinergic antagonists exert a stimulating action on spontaneous activity, a study was carried out of the antagonism towards the stimulating effects of scopolamine (a typical anticholinergic drug which acts at the central level) by the heptyl derivative. […] These activities show the existence of antagonism towards the central effects of scopolamine, indicative of a central effect of the heptyl derivative.

[9] = test system: mice implanted with parietal electrodes; assay: electrocorticographic activity; type: in vivo; settings: 10 mg/kg, 15 minutes after administration
Procedure: as §4, §2
The […] was recorded by a Beckmann polygraph.

[10] = Table II, i.p. equiactive doses: Phys. 0.2, Hept. 1.0 mg/Kg
[11] = bimolecular rate constant, value = ki × 10^-5
[12] = first order carbamylation rate constant
[13] = first order reactivation rate constant, value = k3 × 10^2

T1 sequence (O42275 24-633): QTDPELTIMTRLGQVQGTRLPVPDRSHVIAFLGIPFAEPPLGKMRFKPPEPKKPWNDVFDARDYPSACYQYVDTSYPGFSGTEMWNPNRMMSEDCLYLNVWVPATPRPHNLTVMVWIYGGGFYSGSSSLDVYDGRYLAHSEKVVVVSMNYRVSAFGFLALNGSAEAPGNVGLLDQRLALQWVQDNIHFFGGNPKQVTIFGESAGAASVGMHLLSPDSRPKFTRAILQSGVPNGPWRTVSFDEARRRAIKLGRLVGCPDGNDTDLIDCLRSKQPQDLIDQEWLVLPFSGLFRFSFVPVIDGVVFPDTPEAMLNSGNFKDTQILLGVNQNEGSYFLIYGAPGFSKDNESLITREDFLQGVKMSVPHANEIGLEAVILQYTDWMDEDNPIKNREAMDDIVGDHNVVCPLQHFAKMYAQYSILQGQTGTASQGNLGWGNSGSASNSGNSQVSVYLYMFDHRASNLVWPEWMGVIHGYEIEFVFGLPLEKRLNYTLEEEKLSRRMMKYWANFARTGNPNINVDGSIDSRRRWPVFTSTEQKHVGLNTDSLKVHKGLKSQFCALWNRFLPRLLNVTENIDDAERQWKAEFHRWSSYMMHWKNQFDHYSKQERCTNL

CNC(=O)Oc1ccc2c(c1)[C@]1(C)CCN(C)[C@@H]1N2C [Eserine, reference compound]
LD50 at 2 h [1]: 0.6 mg/kg
effect on spontaneous locomotor activity (analogous to depressing effect of heptyl derivative) ([2]; doses between 0.1 and 0.3 mg/kg): An analogous effect
effect on coloration of cerebral tissues (AchE inhibition) ([3]; 0.4 and 0.5 mg/kg): no evident effect
AChE inhibition, brain (M ± SE) ([4]; 0.15 mg/kg i.p.): 39.18 ± 4.32%
% AChE Inhibition, brain, 60 minutes (M ± SE) [4, 10]: 12.47 ± 2.83%
% AChE Inhibition, brain, 120 minutes (M ± SE) [4, 10]: 3.28 ± 1.99%
k2 (± S.E.) [5]: 8.8 ± 1.0
k3 × 10^2 (± S.E.) [5]: 5.4 ± 0.2
ki × 10^-5 (± S.E.) [5]: 26.6 ± 0.8

CCNC(=O)Oc1ccc2c(c1)[C@]1(C)CCN(C)[C@@H]1N2C [Ethyl-]
ki × 10^-5 (± S.E.) [5, 11]: 2.3 ± 0.1
k2 (± S.E.) [5, 12]: 3.5 ± 1.1
k3 × 10^2 (± S.E.) [5, 13]: 2.5 ± 0.3
IC50 [6]: 1000 nM
Ki [6]: 130 nM

CCCCCCCCCCCNC(=O)Oc1ccc2c(c1)[C@]1(C)CCN(C)[C@@H]1N2C [Undecyl-, trimethyl-1,3a,8-hexahydro-1,2,3,3a,8,8a-pyrrol[2,3-b]indole-5(3aS, 8aR) undecylcarbamate]
ki × 10^-5 (± S.E.) [5, 11]: 0.8 ± 0.1
IC50 [6]: 2900 nM

CCN(CC)C(=O)Oc1ccc2c(c1)[C@]1(C)CCN(C)[C@@H]1N2C [diethyl derivative, Pyrrolo [2,3-b]indol-5-ol,3,3a,8,8a-hexahydrol,3a,8-trimethyl-diethylcarbamate (ester), (3aS-cis)]
LD50 at 2 h [1]: 38 mg/kg
ki × 10^-5 (± S.E.) [5, 11]: 0.004
IC50 [6]: 680000 nM

CN(C)C(=O)Oc1ccc2c(c1)[C@]1(C)CCN(C)[C@@H]1N2C [dimethyl derivative, Pyrrolo [2,3-b]indol-5-ol,3,3a,8,8a-hexahydro-1,3a,8-trimethyl-dimethylcarbamate (ester),(3aS-cis)]
LD50 at 2 h [1]: 9 mg/kg
ki × 10^-5 (± S.E.) [5, 11]: 0.2 ± 0.05
k2 (± S.E.) [5, 12]: 8.8 ± 3.3
k3 × 10^2 (± S.E.) [5, 13]: 8.5 ± 1.2
IC50 [6]: 3100 nM
Ki [6]: 348 nM

CCCCCCCNC(=O)Oc1ccc2c(c1)[C@]1(C)CCN(C)[C@@H]1N2C [heptyl derivative, trimethyl-1,3a,8-hexahydro-1,2,3,3a,8,8a-pyrrol[2,3-b]indole-5(3aS, 8aR) heptylcarbamate]
LD50 at 2 h [1]: 35 mg/kg
lethal dose 100 (LD100) ([7]; injection): 45 mg/kg
lethal dose 50 compared with physostigmine ([7]; ratio to LD50 of physostigmine): about 60 times greater
reduction in locomotor activity compared with the controls ([2]; 5 mg/kg): 25%
influence on spontaneous locomotor activity ([2]; between 0.1 mg/kg and 3 mg/kg): does not influence spontaneous activity
effect on spontaneous locomotor activity ([2]; doses higher than 3 mg/kg): a depressing effect is observed
antagonism of scopolamine-induced stimulation ([8]; 3 mg/kg against scopolamine 1 mg/kg): restored the activity to the control values
effect of the dose per se ([8]; 3 mg/kg alone): ineffective
electrocorticographic amplitude [9]: an increase in its amplitude
electrocorticographic rate [9]: a slowing down of the electrocorticographic rate
effect on coloration of cerebral tissues (AchE inhibition) ([3]; 20 mg/kg, injected 15 minutes before sacrifice): evident diminution in the coloration of the cerebral tissues
duration of effect on coloration of cerebral tissues ([3]; 30 mg/kg): remained for more than one hour
effect on coloration of cerebral tissues (AchE inhibition) ([3]; 30 mg/kg, compared with 20 mg/kg): even more marked
AChE inhibition, brain (M ± SE) ([4]; 0.50 mg/kg i.p.): 25.55 ± 11.64%
AChE inhibition, serum (M ± SE) ([4]; 0.50 mg/kg i.p.): 20.85 ± 5.64%
AChE inhibition, brain (M ± SE) ([4]; 1.00 mg/kg i.p.): 50.00 ± 1.32%
AChE inhibition, serum (M ± SE) ([4]; 1.00 mg/kg i.p.): 59.40 ± 1.99%
AChE inhibition, brain (M ± SE) ([4]; 2.00 mg/kg i.p.): 53.62 ± 10.51%
AChE inhibition, serum (M ± SE) ([4]; 2.00 mg/kg i.p.): 67.42 ± 4.29%
AChE inhibition, brain (M ± SE) ([4]; 4.00 mg/kg i.p.): 72.35 ± 5.92%
AChE inhibition, serum (M ± SE) ([4]; 4.00 mg/kg i.p.): 79.42 ± 2.89%
% AChE Inhibition, brain, 10 minutes (M ± SE) [4, 10]: 50.00 ± 1.32%
% AChE Inhibition, brain, 60 minutes (M ± SE) [4, 10]: 28.46 ± 9.56%
% AChE Inhibition, brain, 120 minutes (M ± SE) [4, 10]: 22.45± 2.54%
% AChE Inhibition, serum, 10 minutes (M ± SE) [4, 10]: 59.40 ± 1.99%
% AChE Inhibition, serum, 60 minutes (M ± SE) [4, 10]: 41.15 ± 4.29%
% AChE Inhibition, serum, 120 minutes (M ± SE) [4, 10]: 21.53 ± 2.31%
ki × 10^-5 (± S.E.) [5, 11]: 2.8 ± 0.1
k2 (± S.E.) [5, 12]: 7.2 ± 3.6
k3 × 10^2 (± S.E.) [5, 13]: 0.71 ± 0.08
IC50 [6]: 1000 nM
Ki [6]: 53 nM

CCCNC(=O)Oc1ccc2c(c1)[C@]1(C)CCN(C)[C@@H]1N2C [n.Propyl-, trimethyl-1,3a,8-hexahydro-1,2,3a,8,8a-pyrrol[2,3-b]indole-5(3aS, 8aR) propylcarbamate]
ki × 10^-5 (± S.E.) [5, 11]: 0.9 ± 0.1
IC50 [6]: 2500 nM

CCCCNC(=O)Oc1ccc2c(c1)[C@]1(C)CCN(C)[C@@H]1N2C [n.butyl derivative]
LD50 at 2 h [1]: 6 mg/kg
ki × 10^-5 (± S.E.) [5, 11]: 2.0 ± 0.1
k2 (± S.E.) [5, 12]: 6.7 ± 3.5
k3 × 10^2 (± S.E.) [5, 13]: 0.45 ± 0.14
IC50 [6]: 3500 nM
Ki [6]: 26 nM

CCCCCCCCCNC(=O)Oc1ccc2c(c1)[C@]1(C)CCN(C)[C@@H]1N2C [n.nonyl derivative]
LD50 at 2 h [1]: 50 mg/kg
ki × 10^-5 (± S.E.) [5, 11]: 1.5 ± 0.1
IC50 [6]: 1500 nM

CN1[C@@H]2C[C@@H](OC(=O)[C@H](CO)c3ccccc3)C[C@H]1[C@@H]1O[C@@H]12 [scopolamine, reference compound]
increase in basic locomotor activity ([8]; scopolamine 1 mg/kg): 100%
